The target in assay [1] is PfIMPα (Plasmodium falciparum, UniProt Q8IAW0). Kind of assay: Thermostability assay (TSA), PfIMPα. The format is binding. As to the method:
(§1) The effect of inhibitory compounds on IMPα thermostability was tested, as previously, using the fluorescent dye SYPRO Orange (Thermo Fisher Scientific, Waltham, MA, USA) and the Qiagen Rotor-Gene Q6 plex instrument programmed in the melt curve mode. Increasing concentrations of compound in 0.5 µL DMSO were added to 24.5 µL recombinant protein (2 µM) in phosphate-buffered saline (PBS). Next, 1 µL of SYPRO Orange dye was added, the reaction mixture heated at 0.5 °C/min from 27 °C to 90 °C, and the fluorescence intensity caused by the SYPRO Orange binding to the proteins monitored (excitation/emission: 530/555 nm). Tm is the temperature at which 50% of the protein is unfolded.

Assay [2] deals with T1, MmΔIBBIMPα (Mus musculus, UniProt P52293).
T1 construct: made in house
Kind of assay: AlphaScreen binding assay, MmΔIBBIMPα:T-ag-NLS-GFP interaction. As to the method: (§2) PfIMPα, TgIMPα, Mus musculus IMPα (MmIMPα), ΔIBBMmIMPα, and β1 (MmIMPβ) GST fusion proteins were expressed and purified essentially as previously. His-tagged TGS1-NLS-GFP, PfIMPα and TgIMPα proteins were purified using Ni^2+-affinity chromatography as described. His-tagged SV40 T-ag-NLS-GFP was purified as previously. Biotinylation of GST-tagged proteins was carried out using the Sulfo-NHS-Biotin reagent (Pierce, Rockford, IL, USA) as described previously. AlphaScreen binding assay was performed as described previously.
(§3) Plates were read for an Alphascreen signal on an Envision plate reader (PerkinElmer, Waltham, MA, USA), with signals from the negative control wells (no bait control) on each plate subtracted.

In assay [3] the test system is T. gondii RH strain expressing the luciferase reporter (RH-Fluc). Put plainly: T. gondii tachyzoite growth inhibition assay (RH-Fluc luciferase). The format is cell-based, Toxoplasma gondii. The note with it: for T. gondii parasite killing: at 2 µM or less (Figure 7); for IC50: read-out: IC50 T. gondii. The source says:
T. gondii RH strain expressing the luciferase reporter (RH-Fluc) was derived to assess the effect of the inhibitors on growth. Briefly, plasmid pCTG-EGFP [42] was modified by replacing the coding sequence of EGFP with that of the firefly luciferase reporter, using restriction enzymes BglII and PstI (Thermo Fisher Scientific, Waltham, MA, USA). The resultant plasmid, pCTG-Fluc, expressing firefly luciferase constitutively under the control of the T. gondii TubulinA promoter, was electroporated into the T. gondii RH strain [43, 44] using a Bio-Rad GenePulser Xcell system (1500 V, 50 Ω and 25 µF) along with restriction enzyme NotI to initiate RE-Mediated Integration (REMI) of the linearized plasmid into the genome. The resultant stable T. gondii line expressing the luciferase reporter was selected for resistance to 20 µM chloramphenicol (encoded by the plasmid pCTG), and dilution cloning was performed to ultimately identify the clone (RH-Fluc) with the highest luciferase activity (c. 4 × 10^7 RLU from 10^7 parasites) used for growth assays. T. gondii tachyzoites were maintained and cultured at 37 °C in 5% CO2 in a humidified incubator in primary human foreskin fibroblasts (HFF, ATCC); HFF cells were maintained in Dulbecco’s modified Eagle medium (DMEM) (Gibco^TM, Waltham, MA, USA) supplemented with 3.7 g/L sodium bicarbonate and 2.38 g/L HEPES, 10% Cosmic Calf serum (Hyclone^TM, Logan, UT, USA) and 20 mg/L gentamicin [47, 48].
Growth inhibition was assessed by luminescence measurements as described. Briefly, 100 μL of culture medium with or without inhibitors was added to confluent monolayers of HFF cells grown in 96-well treated culture plates (Eppendorf, Hamburg, Germany), followed by 100 µL of DMEM containing 5000 parasites. After 48 h, 150 µL of the culture media was discarded from each well without aspirating any parasites, and 10 µL lysis buffer was added to lyse the parasites, followed by 50 μL of 2× luciferase assay reagent (Promega, Madison, WI, USA). Luminescence was measured directly for 10 s using a Varioskan™ LUX multimode microplate reader (Thermo Fisher Scientific, Waltham, MA, USA).

In assay [4] the target is T2, TgIMPα (Toxoplasma gondii, UniProt A0A125YID0). Kind of assay: Thermostability assay (TSA), TgIMPα. The class given is binding. As to the method:
as §1

The target of assay [5] is T2, TgIMPα. Put plainly: biochemical. The class given is binding. The note with it: for % Inhibition of IMPα-NLS Interaction TgIMPα: compounds at 10 μM, TgIMPα (5 nM):T-ag-NLS-GFP (30 nM), relative to 1% DMSO control. As to the method: as §2, §3
For assay [6], the target named is T3, MmIMPα (Mus musculus, UniProt P52293).
T3 construct: GST; made in house
Kind of assay: Thermostability assay (TSA), MmIMPα. The class given is binding. As to the method:
as §1

Setting [7] is: compounds at 10 μM, ΔIBBMmIMPα (5 nM):T-ag-NLS-GFP (30 nM), relative to 1% DMSO control.
Where [8] appears, read: pooled, mean ± SEM (n = 3), read-out: IC50 MmΔIBBIMPα:T-ag-NLS.
Where [9] appears, read: single experiment (Figure 3), IMPα 5 nM, NLS 30 nM, read-out: IC50 MmΔIBBIMPα:T-ag-NLS-GFP.
Where [10] appears, read: 10 μM, 48 h, HFF cells infected with RH-Fluc (Figure 5B).
[11] abbreviates: parasites in culture, 48 h, pooled, mean ± SD (n = 3) (Table 3).
Setting [12] is: single typical experiment (Figure 7), 48 h.
[13] abbreviates: pooled, mean ± SEM (n = 3), read-out: IC50 TgIMPα:T-ag-NLS-GFP.
Setting [14] is: concentrations higher than 20 µM.
The mark [15] stands for this setting: concentrations of 75 µM or higher.

Several values for one entry are separate records, joined by “and”; a condition that tells them apart may be missing. Identical values can stand only once. Like-named read-outs stand apart in the source and are kept apart here.

Sequence of PfIMPα (Q8IAW0 entry or part of it): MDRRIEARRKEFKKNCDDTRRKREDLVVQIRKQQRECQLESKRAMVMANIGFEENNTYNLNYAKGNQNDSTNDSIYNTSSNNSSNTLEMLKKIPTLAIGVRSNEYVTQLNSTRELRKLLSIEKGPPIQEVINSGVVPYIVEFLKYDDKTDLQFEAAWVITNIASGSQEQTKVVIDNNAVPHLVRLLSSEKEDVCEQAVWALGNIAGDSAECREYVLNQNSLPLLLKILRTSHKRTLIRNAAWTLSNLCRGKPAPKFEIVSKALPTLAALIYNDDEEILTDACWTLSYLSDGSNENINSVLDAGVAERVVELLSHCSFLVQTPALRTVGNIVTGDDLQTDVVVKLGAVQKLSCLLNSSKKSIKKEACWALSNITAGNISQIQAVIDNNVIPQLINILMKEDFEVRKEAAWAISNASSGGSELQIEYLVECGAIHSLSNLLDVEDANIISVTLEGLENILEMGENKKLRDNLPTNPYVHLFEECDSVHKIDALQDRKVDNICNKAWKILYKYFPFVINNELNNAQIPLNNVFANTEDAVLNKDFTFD
T2 sequence (A0A125YID0 entry or part of it): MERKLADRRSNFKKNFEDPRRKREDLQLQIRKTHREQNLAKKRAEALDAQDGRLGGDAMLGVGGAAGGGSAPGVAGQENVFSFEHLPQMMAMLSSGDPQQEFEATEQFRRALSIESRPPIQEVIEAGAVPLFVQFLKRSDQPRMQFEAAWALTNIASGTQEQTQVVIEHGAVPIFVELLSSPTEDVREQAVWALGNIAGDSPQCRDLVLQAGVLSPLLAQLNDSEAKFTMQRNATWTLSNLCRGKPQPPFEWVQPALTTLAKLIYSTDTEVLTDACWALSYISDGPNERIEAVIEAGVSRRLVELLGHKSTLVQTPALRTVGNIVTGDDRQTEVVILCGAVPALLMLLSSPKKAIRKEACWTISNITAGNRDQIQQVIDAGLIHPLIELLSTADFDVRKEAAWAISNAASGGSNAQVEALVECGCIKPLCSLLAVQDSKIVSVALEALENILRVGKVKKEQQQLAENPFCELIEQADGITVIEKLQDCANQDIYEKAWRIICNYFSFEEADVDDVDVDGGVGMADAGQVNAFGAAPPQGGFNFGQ

As a reminder, the IC50 is the concentration that gives 50% inhibition. Consider `CC(=O)OC[C@H]1O[C@@H]([S-])[C@H](OC(C)=O)[C@@H](OC(C)=O)[C@@H]1OC(C)=O.CCP(CC)CC.[Au+]` [auranofin], for which the “PfIMPα stable only up to” value in assay [1] (concentrations as low as 5 μM) is 32–35 °C. Also, the “reduction of thermostability of PfIMPα” value in assay [1] (concentrations as low as 5 μM) was 12–15 °C. In addition, the “% Inhibition of IMPα-NLS Interaction MmΔIBBIMPα” value in assay [2] (setting [7]) was found to be 91%. For the same molecule, the IC50 in assay [2] (setting [8]) worked out at 0.06 ± 0.01 µM; in assay [2] (setting [9]), 0.05 µM; in assay [3] (setting [11]) it was 2.3 ± 0.8 µM; in assay [3] (setting [12]), 1.9 µM; in assay [5] (setting [13]), 0.08 ± 0.01 µM; in assay [5] (single experiment (Figure 3), IMPα 5 nM, NLS 30 nM, read-out: IC50 TgIMPα:T-ag-NLS-GFP), 0.05 µM. Moreover, in assay [3] (setting [10]), the “reduction in luciferase activity, indicative of T. gondii growth inhibition” value is reported as > 50%. Also, the “T. gondii parasite killing” value in assay [3] was ≥ 60%. In assay [4] (concentrations as low as 5 μM), the “TgIMPα stable only up to” value is 32–35 °C. The “reduction of thermostability of TgIMPα” value in assay [4] (concentrations as low as 5 μM) is 12–15 °C. Moreover, the “% Inhibition of IMPα-NLS Interaction TgIMPα” value in assay [5] was 90%. The “MmIMPα stable only up to” value in assay [6] (concentrations as low as 5 μM) was 32–35 °C. For the same molecule, the “reduction of thermostability of MmIMPα” value in assay [6] (concentrations as low as 5 μM) is 12–15 °C.
For `CC(C)(C)c1ccc(S(=O)(=O)/C=C/C#N)cc1` [Bay 11-7085], in assay [1] (setting [14]), the “increase of stability of PfIMPα” value was 9–11 °C. Further, the “thermostability of PfIMPα reached” value was 48–50 °C in assay [1] (setting [14]) and 39 °C in assay [1] (concentrations up to 10 µM). In assay [1] (concentrations up to 10 µM), the “reduction of stability of PfIMPα” value turned out to be 6 °C. The “% Inhibition of IMPα-NLS Interaction MmΔIBBIMPα” value in assay [2] (setting [7]) is on record as 9%. Moreover, the IC50 in assay [2] (setting [8]) was 23 µM and 23.4 µM; in assay [2] (setting [9]), 31 µM; in assay [3] (setting [11]) it was 2.7 ± 0.7 µM; in assay [3] (setting [12]) it was 2 µM; in assay [5] (setting [13]), 30.4 ± 0.6 µM. For the same molecule, the “fold higher IC50 for ΔIBBMmIMPα-NLS compared to PfIMPα-TGS-NLS interaction” value in assay [2] (selectivity for PfIMPα) is reported as ~12 fold. The “reduction in luciferase activity, indicative of T. gondii growth inhibition” value in assay [3] (setting [10]) is > 50%. In addition, the “T. gondii parasite killing” value in assay [3] is ≥ 60%. The “TgIMPα stable only up to” value in assay [4] (10–20 µM) is 30–36 °C. Besides, in assay [4] (10–20 µM), the “reduction of thermostability of TgIMPα” value was 9–15 °C. In addition, the “% Inhibition of IMPα-NLS Interaction TgIMPα” value in assay [5] came to 0%. Moreover, in assay [5] (selectivity for PfIMPα), the “fold higher IC50 for TgIMPα-NLS compared to PfIMPα-TGS-NLS interaction” value is recorded as ~16 fold. Also, the “MmIMPα stable only up to” value in assay [6] (10–20 µM) is 30–36 °C. Also, in assay [6] (10–20 µM), the “reduction of thermostability of MmIMPα” value is 9–15 °C.
Usually inhibition stands for how much of the control response was suppressed. As to `O=C(/C=C/c1ccc(O)c(O)c1)OCCc1ccccc1` [CAPE, Caffeic acid phenethyl ester], in assay [1] (setting [15]), the “increase in thermostability of PfIMPα” value worked out at 2 °C. The “thermostability of PfIMPα reached” value in assay [1] (setting [15]) came out at 47 °C. For the same molecule, the inhibition at 10 µM in assay [2] (compounds at 10 μM, ΔIBBMmIMPα (5 nM):T-ag-NLS-GFP (30 nM), relative to 1% DMSO control, read-out: % Inhibition of IMPα-NLS Interaction MmΔIBBIMPα) came to 92%; in assay [3] (Toxoplasma gondii, 10 μM, 48 h, HFF cells infected with RH-Fluc (Figure 5B), read-out: reduction in luciferase activity, indicative of T. gondii growth inhibition) it was 5%; in assay [5] (read-out: % Inhibition of IMPα-NLS Interaction TgIMPα), 62%. In addition, the IC50 in assay [2] (setting [8]) was 0.7 ± 0.1 µM; in assay [3] (Toxoplasma gondii, parasites in culture, 48 h, pooled, mean ± SD (n = 3) (Table 3)), > 10 µM; in assay [5] it was 2.9 ± 0.9 µM. For the same molecule, the “change in stability of TgIMPα” value in assay [4] (up to 100 µM) is recorded as “did not elicit any marked change in stability”. Besides, the “change in stability of MmIMPα” value in assay [6] (up to 100 µM) was “did not elicit any marked change in stability”.

For the origin of these results see PMC8997399, “High-Throughput Screening to Identify Inhibitors of Plasmodium falciparum Importin α” (Cells, 2022).
